Source: patent US8217172B2, “Solid forms of 1-ethyl-3-(5-(5-fluoropyridin-3-yl)-7-(pyrimidin-2-yl)-1H-benzo[d]imidazol-2-yl)urea” (Vertex Pharmaceuticals Incorporated, priority 2007, dated 2012)
Converted amounts (≈) assume the structure as drawn. Like-named read-outs stand apart in the source and are kept apart here.

Key:
Assay type in all cases: physicochemical
[1] = Solubility in various media (equilibration on a shaking bed for 24 hours, HPLC); conditions: for solubility at 24 h: thermodynamic from solid
Experimental: Solubility: The solubility of form IA in various media was determined at ambient conditions by equilibrating aliquots of the drug powder with the solvents on a shaking bed for 24 hours. The samples were centrifuged, the saturated solutions of the drug were then separated and analyzed by HPLC. The sample volume was 100 μL and the target concentration was 10 mg/mL. The saturated solutions were diluted appropriately and analyzed by HPLC.
Solubility: Solubility of form IIC in various media was determined at ambient conditions by equilibrating aliquots of the drug powder with the solvents on a shaking bed for 24 hours. Samples were spun and the supernatant was carefully separated and analyzed by HPLC at the 24-hour timepoint using a stability-indicating method. […] Some variability may occur between lots of a particular sample.
Solubility: Solubility of form IIIB in various media was determined at ambient conditions by equilibrating aliquots of the drug powder with the medium on a shaking bed for 24 hours. The samples were centrifuged, the saturated solutions of the drug were then separated and analyzed by HPLC. The sample volume was 100 μL, and the target concentration was 10 mg/ml. The saturated solutions were diluted appropriately and analyzed by HPLC.

[2] = Dynamic Vapor Sorption (DVS), step isothermal study; conditions: 25° C.
Experimental: Dynamic Vapor Sorption (DVS): A step isothermal study (25° C.) was conducted on a representative sample of form IA using a VTI SGA 100 Symmetric Vapor Sorption Analyzer. An aliquot of approximately 10 mg was weighed in an open platinum dish and exposed to different levels of humidity at 25° C. Relative humidity (RH) steps were from 5% to 95% (adsorption) and from 95% to 5% in increments of 5% RH (desorption). The equilibration criterion was 0.0100 wt % change in 5 min, with a max equilibration time of 180 min. The sample picked up ˜8 wt % moisture at 95% relative humidity (RH).
Dynamic Vapor Sorption (DVS): A step isothermal study (25° C.) was conducted on a sample of form IIA using a VTI SGA 100 Symmetric Vapor Sorption Analyzer. An aliquot of approximately 10 mg was weighed in an open platinum dish and exposed to different levels of humidity at 25° C. Relative humidity (RH) steps were from 5% to 95% (adsorption) and from 95% to 5% in increments of 5% RH (desorption). The equilibration criterion was 0.0100 wt % change in 5 min, with a max equilibration time of 180 min. The material picked up ˜11 wt % moisture at 95% relative humidity (RH).
Dynamic Vapor Sorption (DVS): A step isothermal study (25° C.) was conducted on a sample of form IIC using a VTI SGA 100 Symmetric Vapor Sorption Analyzer. An aliquot of approximately 10 mg was weighed in an open platinum dish and exposed to different levels of humidity at 25° C. Relative humidity (RH) steps were from 5% to 95% (adsorption) and from 95% to 5% in increments of 5% RH (desorption). The equilibration criterion was 0.0100 wt % change in 5 min, with a max equilibration time of 180 min. The material picked up ˜4 wt % moisture at 95% relative humidity (RH).
Water Vapor Sorption analysis: Vapor Sorption analysis of a sample of form IIIB was done using a SGA-100 Vapor Sorption Analyzer (VTI, Hialeah, Fla.). A sample with weight of approximately 7-12 mg was measured isothermally at 25° C. Data was collected by Isotherm software and analyzed by Microsoft Excel with a VTI macro (VTI, Hialeah, Fla.). The sample gained about 4.6% in weight from 5 to 95% RH (25° C.).

[3] = Stability analysis (chemical stability by HPLC, physical stability by XRPD)
Excerpt: In some embodiments, less than 25% of the form of Compound 1 decomposes, in some embodiments, less than about 20%, less than about 15%, less than about 10%, less than about 5%, less than about 3%, less than about 1%, less than about 0.5% of the form of Compound 1 decomposes under the conditions specified. In some embodiments, no detectable amount of the form of Compound 1 decomposes.
In some embodiments, less than 25% of the form of Compound 1 changes into one or more different physical forms when subjected to specified conditions, In some embodiments, less than about 20%, less than about 15%, less than about 10%, less than about 5%, less than about 3%, less than about 1%, less than about 0.5% of the form of Compound 1 changes into one or more different physical forms of Compound 1 when subjected to specified conditions. In some embodiments, no detectable amount of the form of Compound 1 changes into one or more different physical forms of Compound 1.

[4] = various storage conditions, including 40° C./75% RH (e.g., open container)

SMILES: CCNC(=O)Nc1nc2cc(-c3cncc(F)c3)cc(-c3ncccn3)c2[nH]1 [Form IA, crystalline 1-ethyl-3-(5-(5-fluoropyridin-3-yl)-7-(pyrimidin-2-yl)-1H-benzo[d]imidazol-2-yl)urea]
- solubility at 24 h ([1]; 0.05 M potassium biphthalate-sodium hydroxide buffer, pH 3, aqueous buffer, Potassium biphthalate sodium hydroxide, pH 3, read-out: Solubility in 0.05M Buffers at Different pH): 70 µg/mL (≈ 185 µM)
- solubility at 24 h ([1]; 0.05 M potassium biphthalate-sodium hydroxide buffer, pH 5, aqueous buffer, Potassium biphthalate sodium hydroxide, pH 5, read-out: Solubility in 0.05M Buffers at Different pH): < 1 µg/mL
- solubility at 24 h ([1]; 0.05 M potassium chloride-hydrochloric acid buffer, pH 1, simulated gastric fluid, Potassium chloride hydrochloric acid, pH 1, read-out: Solubility in 0.05M Buffers at Different pH): 2240 µg/mL (≈ 5940 µM)
- solubility at 24 h ([1]; 0.05 M potassium phosphate monobasic-sodium hydroxide buffer, pH 7, aqueous buffer, Potassium phosphate monobasic-sodium hydroxide, pH 7, read-out: Solubility in 0.05M Buffers at Different pH): < 1 µg/mL
- solubility at 24 h ([1]; 0.05 M potassium phosphate monobasic-sodium hydroxide buffer, pH 9, aqueous buffer, Potassium phosphate monobasic-sodium hydroxide, pH 9, read-out: Solubility in 0.05M Buffers at Different pH): < 1 µg/mL
- solubility at 24 h ([1]; 0.1N HCl, pH 1.29, simulated gastric fluid, 0.1N HCL, pH 1.29, ambient, 24 h, read-out: Solubility): 13700 µg/mL (≈ 36200 µM)
- solubility at 24 h ([1]; 1% SLS (sodium lauryl sulfate), pH 7.87, aqueous with cosolvent or surfactant or cyclodextrin, 1% SLS (Sodium Lauryl Sulfate), pH 7.87, ambient, 24 h, read-out: Solubility): 75 µg/mL (≈ 199 µM)
- solubility at 24 h ([1]; 1% Tween 80 in water, aqueous with cosolvent or surfactant or cyclodextrin, 1% Tween80 in water, ambient, 24 h, read-out: Solubility): 10 µg/mL (≈ 26.5 µM)
- solubility at 24 h ([1]; 10% Cremophor EL, pH 6.48, aqueous with cosolvent or surfactant or cyclodextrin, 10% Cremophor EL, pH 6.48, ambient, 24 h, read-out: Solubility): 66 µg/mL (≈ 175 µM)
- solubility at 24 h ([1]; 10% Cremophor in water, aqueous with cosolvent or surfactant or cyclodextrin, 10% Cremophor in water, ambient, 24 h, read-out: Solubility): 80 µg/mL (≈ 212 µM)
- solubility at 24 h ([1]; 10% Tween 80, pH 6.22, aqueous with cosolvent or surfactant or cyclodextrin, 10% Tween 80, pH 6.22, ambient, 24 h, read-out: Solubility): 67 µg/mL (≈ 178 µM)
- solubility at 24 h ([1]; 10% Vit E TPGS, pH 5.57, aqueous with cosolvent or surfactant or cyclodextrin, 10% Vit E TPGS, pH 5.57, ambient, 24 h, read-out: Solubility): 87 µg/mL (≈ 231 µM)
- solubility at 24 h ([1]; D5W (dextrose 5% in water), saline or isotonic, D5W (Dextrose 5% in water), ambient, 24 h, read-out: Solubility): < 1 µg/mL
- solubility at 24 h ([1]; Fasted SIF (Dressman's recipe 1), fassif, Dressman's recipe 1-Fasted SIF, ambient, 24 h, read-out: Solubility): < 1 µg/mL
- solubility at 24 h ([1]; Fed SIF (simulated intestinal fluid, Dressman's recipe 1), fessif, Dressman's recipe 1-Fed SIF (Simulated Intestinal Fluid), ambient, 24 h, read-out: Solubility): 10 µg/mL (≈ 26.5 µM)
- solubility at 24 h ([1]; Miglyol 810, oil or lipid, Miglyol 810, ambient, 24 h, read-out: Solubility): 17 µg/mL (≈ 45 µM)
- solubility at 24 h ([1]; PBS, aqueous buffer, PBS (Phosphate Buffer Saline), ambient, 24 h, read-out: Solubility): < 1 µg/mL
- solubility at 24 h ([1]; PEG 400, pH 7.54, organic solvent or mixture, PEG 400, pH 7.54, ambient, 24 h, read-out: Solubility): 1620 µg/mL (≈ 4300 µM)
- solubility at 24 h ([1]; SGF (simulated gastric fluid, USP recipe), simulated gastric fluid, USP recipe-SGF (Simulated Gastric Fluid), ambient, 24 h, read-out: Solubility): 4920 µg/mL (≈ 13000 µM)
- solubility at 24 h ([1]; Tris buffer, pH 7 (1.0 M), pH 7.2, aqueous buffer, Tris buffer, pH 7 (1.0M), pH 7.20, ambient, 24 h, read-out: Solubility): < 1 µg/mL
- solubility ([1]; at a pH of about 1): about 2 mg/mL
- solubility at 24 h ([1]; deionized water, pH 7.14, water, Deionized Water, pH 7.14, ambient, 24 h, read-out: Solubility): < 1 µg/mL
- solubility at 24 h ([1]; ethanol, organic solvent or mixture, Ethanol (second entry, pH NA), ambient, 24 h, read-out: Solubility): 220 µg/mL (≈ 583 µM)
- solubility at 24 h ([1]; ethanol, pH 6.71, organic solvent or mixture, Ethanol (first entry), pH 6.71, ambient, 24 h, read-out: Solubility): 56 µg/mL (≈ 148 µM)
- solubility at 24 h ([1]; octanol, organic solvent or mixture, Octanol, ambient, 24 h, read-out: Solubility): 175 µg/mL (≈ 464 µM)
- solubility at 24 h ([1]; pH 1, simulated gastric fluid, at a pH of about 1, read-out: solubility): ≥ 2000 µg/mL
- solubility at 24 h ([1]; propylene glycol, pH 6.04, organic solvent or mixture, Propylene Glycol, pH 6.04, ambient, 24 h, read-out: Solubility): 359 µg/mL (≈ 951 µM)
- hygroscopicity ([2]; DVS): moderate hygroscopicity
- hydrate formation ([2]; DVS, 5% to 95% RH): did not form a hydrate
- release of adsorbed water in the desorption stage ([2]; DVS, 95% to 5% RH): All adsorbed water was released
- moisture picked up at 95% relative humidity (RH) ([2]; DVS, adsorption 5% to 95% RH): ~8 wt %
- weight gain from 5% to 95% relative humidity ([2]; step isothermic study (DVS)): 8%
- remains chemically stable for at least ([3]; 40° C./75% relative humidity): ≥ 6 months
- remains in substantially the same physical form for at least ([3]; 40° C./75% relative humidity): ≥ 6 months
- stability when subjected to mild mechanical stress ([3]; mild mechanical stress such as grinding): chemically and physically stable
- chemically and physically stable for at least about [3, 4]: at least 2 weeks
- chemically and physically stable for at least about (e.g. value) [3, 4]: ≥ 6 months
